Assays:
[1] = Acute 8-day toxicity, single i.p. application to male mice (LD50); conditions: in vivo, ip, mouse i.p., 8 days
Protocol: The acute 8-day toxicity is determined after a single application i.p. to male mice (body weight 18 to 22 g). The mortality is noted for 8 days. The results are calculated as LD50 values, i.e. the dose which kills 50% of the animals.

[2] = test system: passive cutaneous anaphylaxis; experiment: Inhibition of passive cutaneous anaphylaxis (PCA) in the rat, test substance p.o.; type: in vivo, rat (Sprague-Dawley); conditions: po, 50% reduction in dye concentration vs control, read-out: ED50 inhibiting effect, passive cutaneous anaphylaxy
Protocol: (§1) 2. Determining the inhibition of passive cutaneous anaphylaxis (PCA) and the inhibition of anaphylactoid cutaneous reactions induced by histamine and by serotonin.
For the preparation of an antiovalbumin serum, rich in IgE, which is used in the test, according to the method of Lehrer et al (J. Immunol. 116, (1976) 178-182) and Pauwels et al (Ann. Immunol. 230C., (1979), 49-58), Sprague-Dawley rats are sensitized by i.p. injection of 1 mg ovalbumin and 1 ml Bordetella pertussis suspension (vaxicoq, Merieux 3×10^10 organisms/ml). After 20 days the animals are given an injection of 10 mg ovalbumin in the same way, but without any additive. After a further 4 days, blood is removed from the animals and the blood is centrifuged. The antiserum thus obtained is stored at -20° C. and adjusted according to the method of Goose et al (Immunology 16 (1968) 749-760).
(§2) The determination of the inhibition of passive cutaneous anaphylaxis and the anaphylactoid cutaneous reactions induced by histamine and by serotonin, are carried out, as set forth below, according to the method of Martin and Baggiolini (Naunyn-Schmeiedeberg's Archives of Pharmacology 316 (1981) 186-189).
(§3) For passive sensitizing against ovalbumin, male Sprague-Dawley rates (body weight 150 to 165 g) are injected intradermally on a shaved part of the back with 0.05 ml of a 1:2.5 dilution of antiovalbumin serum, rich in IgE, in physiological sodium chloride solution.
(§4) 24 hours after the sensitizing, solutions of the test substances are administered orally to the rats. For comparison, a control group receives only the solvent.
(§5) Immediately thereafter 1.25 mg (-~8 mg/kg) ovalbumin to trigger the anaphylactic reaction, and 4 mg (-~26.4 mg/kg) of a blue dye dissolved in 0.5 ml phosphate-buffered physiological sodium chloride solution are administered i.v. to the animals.
(§6) After 30 minutes the animals are killed, the skin is removed and in the individual blue patches the quantity of dye contained therein is determined separately. According to the method of Mordelet-Danbrine et al (Therapie 29 (1974) 851-862) the dye is extracted from the individual patches in each case with 2.5 ml dimethylformamide at a temperature of 37° C. for 4 days and the quantity of dye obtained in each case in the extraction solution is determined by spectrophotometric measurement. The doses of the test substances which cause a 50% reduction in the dye concentration compared with the control group are calculated as ED50 values.

[3] = test system: histamine-induced anaphylactoidal reaction; experiment: Inhibition of histamine-induced anaphylactoid cutaneous reaction in the rat, test substance p.o.; type: in vivo, rat (Sprague-Dawley); conditions: po, 40 μg histamine intradermally, read-out: ED50 inhibiting effect, histamine-induced anaphylactoidal reaction
Protocol: as §1, §2, §3, §4
(§7) To trigger the histamine-induced and serotonin-induced anaphylactoid reactions of the skin, the animals are injected intradermally 30 minutes later on a second shaved part of the back with a solution of 40 μg histamine in 0.05 ml physiological sodium chloride solution and on a third shaved part of the back with a solution of 1 μg serotonin in 0.05 physiological sodium chloride solution.
as §5, §6

[4] = test system: serotonin induced anaphylactoidal reaction; experiment: Inhibition of serotonin-induced anaphylactoid cutaneous reaction in the rat, test substance p.o.; type: in vivo, rat (Sprague-Dawley); conditions: po, 1 μg serotonin intradermally, read-out: ED50 inhibiting effect, serotonin induced anaphylactoidal reaction
Protocol: as §1, §2, §3, §4, §7, §5, §6

[5] = test system: peritonal mast cells of rats; experiment: In vitro inhibition of anaphylactically caused histamine release from peritonal mast cells of rats; type: cell-based, rat (Sprague-Dawley); conditions: Rattus norvegicus, Mast cell; ovalbumin trigger, 1 minute preincubation at 37° C.; read-out: EC50 in vitro inhibiting effect with respect to anaphylactically caused histamine release from mast cells of the rat
Protocol: 3. Determining the inhibiting effect in vitro on the release of histamine, caused anaphylactically, from peritonal mast cells of rats.
In order to obtain the peritonal mast cells, Sprague-Dawley rats are killed by inhalation of ether and immediately after cessation of breathing has occurred, 15 ml of a cold solution of 1 mg/ml human serum albumin in phosphate-buffered sodium chloride solution are injected into the abdominal cavity. The peritonal fluid is then removed and the mast cells are separated therefrom by centrifuging and are suspended in phosphate-buffered sodium chloride solution, whereafter the suspension is adjusted to a mast cell concentration of 5×10^5 per ml.
The mast cell suspension, divided up into samples each of 100 μl, is introduced into test-tubes and each sample, for passive sensitizing, is mixed with 100 μl of a 1:10 dilution of IgE-rich antiovalbumin serum in physiological sodium chloride solution (prepared according to the method described above) and is incubated for 30 minutes at a temperature of 37° C. (water bath). For the removal of unbonded IgE, the mast cells are then washed with 2 ml phosphate-buffered sodium chloride solution, centrifuged, and the supernatant fluid is discarded. Then the mast cells are incubated for 1 minute at 37° C. with 200 μl of a solution of the test substance in phosphate-buffered sodium chloride solution. A control group is only incubated with the same quantity of phosphate-buffered sodium chloride solution which is free of test substance.
After an incubation period of 3 minutes at 37° C., the reaction is stopped by rapid cooling in an ice bath. Then centrifuging takes place, the supernatant fluid is decanted and the histamine content therein is determined directly, without further extraction, spectrofluorimetrically according to the method of Shore (J. Pharmac. Exp. Ther. 127 (1959) 182-186).
For the extraction of the residual histamine still contained in the mast cells of the undecanted material, the latter is mixed with 2 ml phosphate-buffered sodium chloride solution and the suspension is heated in a boiling water bath. Then centrifuging takes place, the supernatant fluid is decanted and therein the residual histamine extracted from the mast cells is determined spectrofluorimetrically.
For each sample, the quantity of the released histamine is calculated as percentage proportion of the overall quantity of histamine (=total of released histamine and residual histamine retained in the mast cells).
The EC50 values are calculated to be those molar concentrations of the test substances in the respective test solutions which produce a 50% inhibition of the histamine release compared to the control group.

[6] = test system: carrageenin edema of the paw; experiment: Inhibition of carrageenin paw edema in the rat; type: in vivo, rat (Wistar); conditions: po, 100 mg/kg p.o., 3 hours after irritant, read-out: % Inhibition of carageenin paw edema in the rat
Protocol: Description of the test method to determine the inhibiting effect on the carrageenin edema of the paw in the rats according to the method of Winter et al (Proc. Soc. Exp. Biol. Med. 111 (1962) 544-547).
Male Wistar rates with a body weight of approximately 120 to 140 g are used. A dose of 100 mg/kg of the test substance suspended in a volume of 0.5 ml per 100 g body weight of a 1% methyl cellulose solution Tylose®, American Hoechst Corp., Somerville, NJ) is administered per os.
Only the Tylose® solution is administered to a control group. One hour later, to initiate the inflammation, 0.1 ml of a 1% suspension of carageenin (Satiagum® E) in an isotonic solution of sodium chloride are administered as an irritant by intraplantar injection into the right rear paw. An identical volume of isotonic sodium chloride solution is injected into the left rear paw. Both before and also 3 hours after the administration of the irritant, the volume of the individual rat paws is measured plethysmometrically and the volume of swelling of the paw after administration of carrageenin is determined compared with the paw which was only treated with sodium chloride solution. The inhibition of edema formation brought about by the test substances in the treated animals is indicated in percentage compared with the animals of the untreated control group.

| SMILES | LD50 at 192 h [1] | ED50 [2] | ED50 [3] | ED50 [4] | EC50 [5] | inhibition in vivo at 100 mg/kg [6] |
| --- | --- | --- | --- | --- | --- | --- |
| CCc1cc(=O)n(CCCN2CCN(c3ccc(F)cc3)CC2)n1-c1ccccc1 [Example 1, 5-ethyl-1-phenyl-2-{3-[4-(4-fluorophenyl)-piperazin-1-yl]-propyl}-pyrazolin-3-one] | 117 mg/kg | 2.5 mg/kg | 4.7 mg/kg | 2.6 mg/kg | 50 µM | 52.8% |
| Cc1cc(=O)n(CCCN2CCN(c3ccc(F)cc3)CC2)n1-c1ccccc1 [Example 8] |  |  |  |  |  | 56.4% |
| CCCc1cc(=O)n(CCCN2CCN(c3ccc(F)cc3)CC2)n1-c1ccccc1 [Example 12] |  |  |  |  |  | 49.5% |
| Cc1cc(=O)n(CCCN2CCN(c3ccc(F)cc3)CC2)n1-c1ccc([N+](=O)[O-])cc1 [Example 39] | 91.5 mg/kg | 5.7 mg/kg | 9.7 mg/kg | 2.5 mg/kg |  | 42.6% |
| CCc1cc(=O)n(CCCN2CCN(c3ccc(F)cc3)CC2)n1-c1ccc([N+](=O)[O-])cc1 [Example 54] | 53.3 mg/kg | 4.45 mg/kg | 5.46 mg/kg | 0.52 mg/kg | 120 µM | 45.6% |
| CC(=O)c1ccc(-n2c(C)cc(=O)n2CCCN2CCN(c3ccc(F)cc3)CC2)cc1 [Example 59] |  |  |  |  |  | 45.7% |
| Cc1cc(=O)n(CCCN2CCN(c3ccc(F)cc3)CC2)n1-c1ccc(C#N)cc1 [Example 60] | 91.5 mg/kg | 1.86 mg/kg | 3.32 mg/kg | 2.49 mg/kg | 200 µM | 62.4% |
| Cc1cc(=O)n(CCCN2CCN(c3ccc(F)cc3)CC2)n1-c1ccc(Cl)cc1 [Example 62] |  | 5.47 mg/kg | 7.04 mg/kg | 3.64 mg/kg | 62 µM | 63.9% |
| O=c1cc(C2CCCC2)n(-c2ccccc2)n1CCCN1CCN(c2ccc(F)cc2)CC1 [Example 63] |  |  |  |  |  | 42.2% |
